Like-named read-outs stand apart in the source and are kept apart here.
Assays:
[1] = system: intraperitoneally transplantable tumors (P 388 mouse leukaemia and NK/Ly ascites lymphoma); assay: Similar transplanted tumor tests with N-desmethyl-N-(methoxymethyl)-20'-desoxy-leurosidine (life span); assay type: in vivo; conditions: for Treated/Control: mean length of life
Procedure: (§1) The effect of the new compounds on intraperitoneally transplantable tumors (P 388 mouse leukaemia and NK/Ly ascites lymphoma) is described hereinbelow. The P 388 leukaemia test was performed on BDF hybrid mice. The tests were carried out on groups of six mice and 10^6 tumor cells/animal were transplanted intraperitoneally. Administration of the test compounds was started in the 24th hour after transplantation. Treatment was performed intraperitoneally and the body weight and state of animals was controlled every day. The effect obtained on the treated animals is expressed in % of the mean length of life of the control group, given in days.
(§2) Into groups of ten Swiss-H/Riop outbred mice from our own breed 5×10^6 ascites tumour cells were transplanted intraperitoneally. In the 24th hour after transplantation treatment was started and the compounds were administered daily, altogether five times. The mean length of life of the control group amounted to 15.7 days.
Similar tests were performed with N-desmethyl-N-(methoxymethyl)-20'-desoxy-leurosidine. In these tests the doses and the number of treatments were varied.

[2] = Acute toxicity in mice (i.p., Lichfield and Wilcoxon), with paralytic side effect; assay type: in vivo, male Swiss mice; conditions: for LD50: mouse, in vivo, ip; for Paralytic side effect: symbols 0 / + not defined
Procedure: The acute toxicity of the compounds according to the invention was tested on male Swiss mice weighing 27 to 31 g. The tests were carried out on groups of six mice. Test compounds were administered intraperitoneally, as injectable solutions prepared with physiological saline solution and optionally one drop of Tween 80.

P 388 mouse leukaemia = assay: P 388 leukaemia test (life span of i.p. transplanted mice); assay type: in vivo, BDF hybrid mice
Procedure: as §1

HeLa culture = assay: Metaphase block stages in stained tissue cultures; assay type: cell-based; conditions: for effect on mitosis at lowest dose: 0.001 μg./ml.
Procedure: The test compounds were dissolved in the tissue cultures (HeLa culture) in concentrations ranging from the threshold dose of 1×10^-3 μg./ml. up to 100 μg./ml. In 24-hour cultures, by in vivo microscopic evaluation of the metaphase-arresting affect the following results were obtained.
Under similar conditions but using stained tissue cultures slight differences could be observed which can be classified as follows:
The first stage (minimal effective dose) is characterized by an increased ratio of blocked mitoses. A part is abnormal mitoses, for example three-group mitosis or polar chromosomes also occur. Generally the anaphases have already disappeared.
In the second stage a strong metaphase blocking is observed and practically there is no regulare mitosis present. Chromosomes are in the form of a loose glomus. The proportion of interphase cells is low.
In the third stage the chromosomas are aggregated in a mass in the middle of the cell. This state is called picnomitosis of "Ball-Metaphase".
In the fourth stage already the interphase cells are influenced. More particularly, the number of the blocked cells is decreased since they are not able to take part in mitosis. The cytoplasm of the cells (in interphase) is extended, its border is irregular, "fringy", the cells frequently have an elongated, fibroplast-like shape.
Finally, in the fifth stage the cytoplasm is filled in by a fine, reticular structure and the interphase cell has unambiguously been killed by the treatment.

NK/Ly ascites lymphoma = assay: NK/Ly ascites tumour test (survival and tumor-free animals); assay type: in vivo, Swiss-H/Riop outbred mice
Procedure: as §1, §2

[3] = Mus musculus, P388, ip, mean length of life, 8 × 2.0 mg./kg. i.p., read-out: Treated/Control
[4] = Mus musculus, P388, ip, mean length of life, 8 × 4.0 mg./kg. i.p., read-out: Treated/Control
[5] = Mus musculus, P388, ip, mean length of life, 8 × 8.0 mg./kg. i.p., read-out: Treated/Control
[6] = Mus musculus, P388, ip, mean length of life, 8 × 1.0 mg./kg. i.p., read-out: Treated/Control
[7] = Mus musculus, P388, ip, mean length of life, 8 × 0.4 mg./kg. i.p., read-out: Treated/Control

Compound	LD50 [2] [mg/kg]	Paralytic side effect [2]	Mean length of life, treated (P 388 mouse leukaemia; 8 × 4.0 mg./kg. i.p.) [days]	Mean length of life, treated (P 388 mouse leukaemia; 8 × 8.0 mg./kg. i.p.) [days]	response vs control in vivo at 4 mg/kg (P 388 mouse leukaemia; [4]) [%]	response vs control in vivo at 8 mg/kg (P 388 mouse leukaemia; [5]) [%]	Mean length of life, treated (P 388 mouse leukaemia; 8 × 0.4 mg./kg. i.p.) [days]	response vs control in vivo at 0.4 mg/kg (P 388 mouse leukaemia; [7]) [%]	further results
CCC1CC2CN(CCc3c([nH]c4ccccc34)C(C(=O)OC)(c3cc4c(cc3OC)N(COC)C3C(O)(C(=O)OC)C(OC(C)=O)C5(CC)C=CCN6CCC43C65)C2)C1 (centres unmarked) [N-Desmethyl-N-(methoxymethyl)-20'-desoxyleurosidine]									Mean length of life, treated ([1]; 4 × 7 mg./kg. i.p.): 17.1 days; Mean length of life, treated ([1]; 4 × 8 mg./kg. i.p.): 21.8 days; Mean length of life, treated ([1]; 8 × 0.5 mg./kg. i.p.): 15.3 days; Mean length of life, treated ([1]; 8 × 1 mg./kg. i.p.): 21.7 days; Mean length of life, treated ([1]; 8 × 4 mg./kg. i.p.): 20.8 days; Treated/Control ([1]; 4 × 7 mg./kg. i.p.): 142%; Treated/Control ([1]; 4 × 8 mg./kg. i.p.): 180%; Treated/Control ([1]; 8 × 0.5 mg./kg. i.p.): 126%; Treated/Control ([1]; 8 × 1 mg./kg. i.p.): 178%; Treated/Control ([1]; 8 × 4 mg./kg. i.p.): 180%
CCOCN1c2cc(OC)c(C3(C(=O)OC)CC4CN(CCc5c3[nH]c3ccccc53)CC(O)(CC)C4)cc2C23CCN4CC=CC(CC)(C(OC(C)=O)C(O)(C(=O)OC)C12)C43 (centres unmarked) [N-Desmethyl-N-(ethoxymethyl)-vinblastine]	~110	0	18.5	20.5	167	208			Mean length of life, treated (P 388 mouse leukaemia; 8 × 2.0 mg./kg. i.p.): 20.3 days; response vs control in vivo at 2 mg/kg (P 388 mouse leukaemia; [3]): 193%
CCC1(O)CC2CN(CCc3c([nH]c4ccccc34)C(C(=O)OC)(c3cc4c(cc3OC)N(COC)C3C(O)(C(=O)OC)C(OC(C)=O)C5(CC)C=CCN6CCC43C65)C2)C1 (centres unmarked) [N-Desmethyl-N-(methoxymethyl)-vinblastine]	~100	0			171				Mean length of life, treated (P 388 mouse leukaemia; 8 × 1.0 mg./kg. i.p.): 12.7 days; Mean length of life, treated (P 388 mouse leukaemia; 8 × 6.0 mg./kg. i.p.): 19.2 days; response vs control in vivo at 1 mg/kg (P 388 mouse leukaemia; [6]): 122%; response vs control in vivo at 6 mg/kg (P 388 mouse leukaemia; Mus musculus, P388, ip, mean length of life, 8 × 6.0 mg./kg. i.p., read-out: Treated/Control): 182%
CCCOCN1c2cc(OC)c(C3(C(=O)OC)CC4CN(CCc5c3[nH]c3ccccc53)CC(O)(CC)C4)cc2C23CCN4CC=CC(CC)(C(OC(C)=O)C(O)(C(=O)OC)C12)C43 (centres unmarked) [N-Desmethyl-N-(propoxymethyl)-vinblastine]	~80	0	19.0	20.2	171	205			Mean length of life, treated (P 388 mouse leukaemia; 8 × 1.0 mg./kg. i.p.): 15.0 days; Mean length of life, treated (P 388 mouse leukaemia; 8 × 2.0 mg./kg. i.p.): 20.8 days; Mean length of life, treated (P 388 mouse leukaemia; 8 × 10.0 mg./kg. i.p.): 14.7 days; Toxicity (P 388 mouse leukaemia; 8 × 10.0 mg./kg. i.p., footnote: The animals died tumorfree): toxic; response vs control in vivo at 1 mg/kg (P 388 mouse leukaemia; [6]): 145%; response vs control in vivo at 2 mg/kg (P 388 mouse leukaemia; [3]): 198%; response vs control in vivo at 10 mg/kg (P 388 mouse leukaemia; Mus musculus, P388, ip, mean length of life, 8 × 10.0 mg./kg. i.p., read-out: Treated/Control): 142%
CCCCCCCOCN1c2cc(OC)c(C3(C(=O)OC)CC4CN(CCc5c3[nH]c3ccccc53)CC(O)(CC)C4)cc2C23CCN4CC=CC(CC)(C(OC(C)=O)C(O)(C(=O)OC)C12)C43 (centres unmarked) [N-Desmethyl-N-(heptoxymethyl)-vinblastine]	~60	0	18.7	21.3	181	247	14.3	139	relative effectiveness (HeLa culture): most effective compound; alive (NK/Ly ascites lymphoma; 5 × 6.0 mg./kg. i.p.): 10/10; on the 25th day tumor-free (NK/Ly ascites lymphoma; 5 × 6.0 mg./kg. i.p.): 7/10; on the 30th day tumor-free (NK/Ly ascites lymphoma; 5 × 6.0 mg./kg. i.p.): 3/10
CC[C@]1(O)C[C@@H]2CN(CCc3c([nH]c4ccccc34)[C@@](C(=O)OC)(c3cc4c(cc3OC)N(C)[C@H]3[C@@](O)(C(N)=O)[C@H](O)[C@]5(CC)C=CCN6CC[C@]43[C@@H]65)C2)C1 [vindesine, reference compound]	4								
CCC1(O)CC2CN(CCc3c([nH]c4ccccc34)C(C(=O)OC)(c3cc4c(cc3OC)N(COC3CCCCC3)C3C(O)(C(=O)OC)C(OC(C)=O)C5(CC)C=CCN6CCC43C65)C2)C1 (centres unmarked) [N-Desmethyl-N-(cyclohexaloxymethyl)vinblastine]	~60	0	18.8	19.3	181	197	13.1	127	alive (NK/Ly ascites lymphoma; 5 × 4.0 mg./kg. i.p.): 10/10; on the 25th day tumor-free (NK/Ly ascites lymphoma; 5 × 4.0 mg./kg. i.p.): 5/10; on the 30th day tumor-free (NK/Ly ascites lymphoma; 5 × 4.0 mg./kg. i.p.): 3/10
CCC1(O)CC2CN(CCc3c([nH]c4ccccc34)C(C(=O)OC)(c3cc4c(cc3OC)N(COCc3ccccc3)C3C(O)(C(=O)OC)C(OC(C)=O)C5(CC)C=CCN6CCC43C65)C2)C1 (centres unmarked) [N-Desmethyl-N-(benzyloxymethyl)-vinblastine]	~70	0	18.3		178		13.0	126	relative effectiveness (HeLa culture): weakest effect; effect on mitosis at lowest dose (HeLa culture): minimum block with several deformed mitoses but without anaphases; effect on mitosis at 0.01 μg./ml. (HeLa culture; 0.01 μg./ml.): the block was moderate; Mean length of life, treated (P 388 mouse leukaemia; 5 × 8.0 mg./kg. i.p.): 19.2 days; response vs control in vivo at 8 mg/kg (P 388 mouse leukaemia; Mus musculus, P388, ip, mean length of life, 5 × 8.0 mg./kg. i.p., read-out: Treated/Control): 195%
CC[C@]1(O)C[C@@H]2CN(CCc3c([nH]c4ccccc34)[C@@](C(=O)OC)(c3cc4c(cc3OC)N(C)[C@H]3[C@@](O)(C(=O)OC)[C@H](OC(C)=O)[C@]5(CC)C=CCN6CC[C@]43[C@@H]65)C2)C1 [vinblastine, reference compound]		0							
CCC1(O)CC2CN(CCc3c([nH]c4ccccc34)C(C(=O)OC)(c3cc4c(cc3OC)N(COCC(C)C)C3C(O)(C(=O)OC)C(OC(C)=O)C5(CC)C=CCN6CCC43C65)C2)C1 (centres unmarked) [N-Desmethyl-N-(isobutoxymethyl)-vinblastine]	~60	0	20.0	20.5	194	208	13.7	133	relative effectiveness (HeLa culture): an order of a magnitude lower effect; effect on mitosis at lowest dose (HeLa culture): regular mitoses could still be observed; alive (NK/Ly ascites lymphoma; 5 × 4.0 mg./kg. i.p.): 10/10; on the 25th day tumor-free (NK/Ly ascites lymphoma; 5 × 4.0 mg./kg. i.p.): 10/10; on the 30th day tumor-free (NK/Ly ascites lymphoma; 5 × 4.0 mg./kg. i.p.): 7/10
C=CCOCN1c2cc(OC)c(C3(C(=O)OC)CC4CN(CCc5c3[nH]c3ccccc53)CC(O)(CC)C4)cc2C23CCN4CC=CC(CC)(C(OC(C)=O)C(O)(C(=O)OC)C12)C43 (centres unmarked) [N-Desmethyl-N-(allyloxymethyl)-vinblastine]	~45	0	21.0	20.5	200	207	15.0	145	alive (NK/Ly ascites lymphoma; 5 × 4.0 mg./kg. i.p.): 10/10; on the 25th day tumor-free (NK/Ly ascites lymphoma; 5 × 4.0 mg./kg. i.p.): 10/10; on the 30th day tumor-free (NK/Ly ascites lymphoma; 5 × 4.0 mg./kg. i.p.): 6/10

From patent US4410459A, “Process for preparation of cytostatic compounds” (priority 1980, dated 1983)
